Source: patent publication US20240158446A1, “CYCLIC COMPOUND HAVING SELECTIVE INHIBITORY ACTION ON KRAS OVER HRAS AND NRAS” (CHUGAI SEIYAKU KABUSHIKI KAISHA, priority 2021, published 2024)
*1 amine or outer side, *2 acyl side, *3 side chain or, on linkers, in order; H or OH if unused. Where a SMILES comes first, the peptide text is derived from it. Bridges are numbered along the chain shown (N, C = ends). [ ]: non-standard residue; d: D form. The star is where a group is joined. hPhe(3-Cl-4-CF3) = N[C@@H](CCc1ccc(C(F)(F)F)c(Cl)c1)C(=O)O; X46 = CCCCN([C@@H](Cc1ccc(C)cc1)C(=O)[*:2])[*:1]; NEtPhe(4-Me) = CCN[C@@H](Cc1ccc(C)cc1)C(=O)O; NMeGly(cPent) = CN[C@H](C(=O)O)C1CCCC1; Hyp = O=C(O)[C@@H]1C[C@@H](O)CN1; NMeD = CN[C@@H](CC(=O)O)C(=O)O; NMeL = CN[C@@H](CC(C)C)C(=O)O; Morpholide = C1CN(*)CCO1; NMeA = CN[C@@H](C)C(=O)O; Ac5c = NC1(C(=O)O)CCCC1; Aze = O=C(O)[C@@H]1CCN1; X51 = C1CCC(*)OC1; Sar = CNCC(=O)O

Key:
[1] = target: GDP-bound HRAS wild-type protein (Homo sapiens, UniProt P01112); assay: Binding to HRAS by surface plasmon resonance (SPR), Single Cycle Kinetics; settings: for HRAS/KRAS (ratio of KD value for HRAS to KD value for KRAS): SPR, GDP-bound HRAS wild-type protein vs GDP-bound KRAS wild-type protein
[2] = target: GDP-bound NRAS wild-type protein (Homo sapiens, UniProt P01111); assay: Binding to NRAS by surface plasmon resonance (SPR), Single Cycle Kinetics; settings: for NRAS/KRAS (ratio of KD value for NRAS to KD value for KRAS): SPR, GDP-bound NRAS wild-type protein vs GDP-bound KRAS wild-type protein
Sequence of GDP-bound NRAS wild-type protein (P01111 whole entry): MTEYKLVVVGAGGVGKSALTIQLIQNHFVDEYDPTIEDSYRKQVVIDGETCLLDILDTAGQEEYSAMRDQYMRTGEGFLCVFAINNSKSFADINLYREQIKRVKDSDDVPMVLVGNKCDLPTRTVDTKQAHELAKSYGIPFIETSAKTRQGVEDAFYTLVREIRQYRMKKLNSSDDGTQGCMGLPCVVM

Sequence of GDP-bound HRAS wild-type protein (P01112 whole entry): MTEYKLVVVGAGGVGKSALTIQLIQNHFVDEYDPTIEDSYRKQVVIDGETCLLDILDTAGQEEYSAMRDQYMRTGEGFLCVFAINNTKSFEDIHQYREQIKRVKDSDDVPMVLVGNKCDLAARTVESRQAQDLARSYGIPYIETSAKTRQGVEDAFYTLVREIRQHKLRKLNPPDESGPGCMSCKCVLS

| Compound | HRAS/KRAS (ratio of KD value for HRAS to KD value for KRAS) [1] | NRAS/KRAS (ratio of KD value for NRAS to KD value for KRAS) [2] | HRAS/KRAS (ratio of KD value with respect to GDP-bound HRAS wild-type protein to KD value with respect to KRAS) ([1]; SPR KD ratio HRAS/KRAS, class symbols) | NRAS/KRAS (ratio of KD value with respect to GDP-bound NRAS wild-type protein to KD value with respect to KRAS) ([2]; SPR KD ratio NRAS/KRAS, class symbols) |
| --- | --- | --- | --- | --- |
| CCCN1C(=O)[C@@H]2CCN2C(=O)[C@H](C)N(C)C(=O)[C@H]([C@@H](C)CC)NC(=O)[C@H](CC(C)C)N(C)C(=O)C[C@@H](C(=O)N2CCOCC2)N(C)C(=O)[C@H](C2CCCC2)N(C)C(=O)C2(CCCC2)NC(=O)[C@@H]2C[C@H](O)CN2C(=O)[C@H](CCc2ccc(C(F)(F)F)c(Cl)c2)NC(=O)CN(C)C(=O)[C@@H]1Cc1ccc(C(F)(F)F)cc1 (stereo in doubt) [PP0238] | C (A compound having a KD ratio of 0.1 or more and less than 3 is denoted as C) | C (A compound having a KD ratio of 0.1 or more and less than 3 is denoted as C) |  |  |
| CC[C@H](C)[C@@H]1NC(=O)[C@H](CC(C)C)N(C)C(=O)C[C@@H](C(=O)N2CCOCC2)N(C)C(=O)[C@H](C2CCCC2)N(C)C(=O)C2(CCCC2)NC(=O)[C@@H]2CCCN2C(=O)[C@H](CCc2ccc(C(F)(F)F)c(Cl)c2)NC(=O)CN(C)C(=O)[C@H](Cc2ccc(C(F)(F)F)cc2)N2CCCCC[C@@H](C2=O)N(C)C(=O)CN(C)C1=O (stereo in doubt) [PP0319] | B (a compound having 3 or more and less than 10 is denoted as B) | B (a compound having 3 or more and less than 10 is denoted as B) |  |  |
| CCCN1C(=O)CN(C)C(=O)CN(C)C(=O)[C@H]([C@@H](C)CC)NC(=O)[C@@H]2CCCCCCC[C@@](C)(NC(=O)[C@@H]3C[C@@H](OCC)CN3C(=O)[C@H](CCc3cc(F)c(C(F)(F)F)c(F)c3)NC(=O)CN(C)C(=O)[C@@H]1Cc1ccc(C(F)(F)F)cc1)C(=O)N(C)[C@@H](C1CCCC1)C(=O)N(C)[C@H](C(=O)N1CCOCC1)CC(=O)N2C (stereo in doubt) [PP0898] | B (a compound having 3 or more and less than 10 is denoted as B) | B (a compound having 3 or more and less than 10 is denoted as B) |  |  |
| CCCN1C(=O)CN(C)C(=O)CN(C)C(=O)[C@H]([C@@H](C)CC)NC(=O)[C@@H]2COCC=CC[C@@](C)(NC(=O)[C@@H]3C[C@@H](OCC)CN3C(=O)[C@H](CCc3cc(F)c(C(F)(F)F)c(F)c3)NC(=O)CN(C)C(=O)[C@@H]1Cc1ccc(C(F)(F)F)cc1)C(=O)N(C)[C@@H](C1CCCC1)C(=O)N(C)[C@H](C(=O)N1CCOCC1)CC(=O)N2C (stereo in doubt) [PP0903] | C (A compound having a KD ratio of 0.1 or more and less than 3 is denoted as C) | B (a compound having 3 or more and less than 10 is denoted as B) |  |  |
| CC[C@H](C)[C@@H]1NC(=O)[C@H](CC(C)C)N(C)C(=O)C[C@@H](C(=O)N2CCOCC2)N(C)C(=O)[C@H](C2CCCC2)N(C)C(=O)C2(CCC2)NC(=O)[C@@H]2C[C@@H](OCCC(F)(F)F)CN2C(=O)[C@H](CCc2cc(F)c(C(F)(F)F)c(F)c2)NC(=O)CN(C)C(=O)[C@H](Cc2ccc(C(F)(F)F)cc2)N2CCCC[C@@H](C2=O)N(C)C(=O)CN(C)C1=O (stereo in doubt) [PP0998] | B (a compound having 3 or more and less than 10 is denoted as B) | B (a compound having 3 or more and less than 10 is denoted as B) |  |  |
| CCO[C@@H]1C[C@H]2C(=O)NC3(CCC3)C(=O)N(C)[C@@H](C3CCCC3)C(=O)N(C)[C@H](C(=O)N(C)CC)CC(=O)N(C)[C@H]3CCCCCc4ccc(cc4)C[C@@H](C(=O)N(C)CC(=O)N[C@@H](CCc4cc(F)c(C(F)(F)F)c(F)c4)C(=O)N2C1)N1CC/C=C\C[C@@H](C1=O)N(C)C(=O)CN(C)C(=O)[C@H]([C@@H](C)CC)NC3=O (stereo in doubt) [PP2117] | A (a compound having 10 or more and less than 20 is denoted as A) | A (a compound having 10 or more and less than 20 is denoted as A) |  |  |
| CCOC[C@H]1C(=O)N[C@@H]([C@@H](C)CC)C(=O)N(C)CC(=O)N(C)[C@H]2C/C=C\CCN(C2=O)[C@@H](Cc2ccc(CC)cc2)C(=O)N(C)CC(=O)N[C@@H](CCc2ccc(C(F)(F)F)c(OC)c2)C(=O)N2C[C@@H](C)C[C@H]2C(=O)NC2(CC(C)(C)C2)C(=O)N(C)[C@@H](C2CCCC2)C(=O)N(C)[C@H](C(=O)N(C)CC)CC(=O)N1C (stereo in doubt) [PP2696] |  |  | B (a compound having 3 or more and less than 10 is denoted as B) | A (a compound having 10 or more and less than 20 is denoted as A) |
| CCCCN1C(=O)[C@@H]2CCN2C(=O)[C@H](C)N(C)C(=O)[C@H]([C@@H](C)CC)NC(=O)[C@H](CC(C)C)N(C)C(=O)C[C@@H](C(=O)N2CCOCC2)N(C)C(=O)[C@H](C2CCCC2)N(C)C(=O)C2(CCCC2)NC(=O)[C@@H]2CCCN2C(=O)[C@H](CCc2ccc(C(F)(F)F)c(Cl)c2)NC(=O)CN(C)C(=O)[C@@H]1Cc1ccc(C)cc1 [PP0055] ([NMeL]I[NMeA][Aze][X46][Sar][hPhe(3-Cl-4-CF3)]P[Ac5c][NMeGly(cPent)][NMeD]-Morpholide; lactam N-11) | C (A compound having a KD ratio of 0.1 or more and less than 3 is denoted as C) | C (A compound having a KD ratio of 0.1 or more and less than 3 is denoted as C) |  |  |
| CC[C@H](C)[C@@H]1NC(=O)[C@H](CC(C)C)N(C)C(=O)C[C@@H](C(=O)N2CCOCC2)N(C)C(=O)[C@H](C2CCCC2)N(C)C(=O)C2(CCCC2)NC(=O)[C@@H]2C[C@@H](OC3CCCCO3)CN2C(=O)[C@H](CCc2ccc(C(F)(F)F)c(Cl)c2)NC(=O)CN(C)C(=O)[C@H](Cc2ccc(C)cc2)N(CC)C(=O)[C@@H]2CCN2C(=O)[C@H](C)N(C)C1=O (some centres unmarked) [PP0067] ([NMeL]I[NMeA][Aze][NEtPhe(4-Me)][Sar][hPhe(3-Cl-4-CF3)][Hyp](X51)[Ac5c][NMeGly(cPent)][NMeD]-Morpholide; lactam N-11) | C (A compound having a KD ratio of 0.1 or more and less than 3 is denoted as C) | C (A compound having a KD ratio of 0.1 or more and less than 3 is denoted as C) |  |  |
| CC[C@H](C)[C@@H]1NC(=O)[C@H](CC(C)C)N(C)C(=O)C[C@@H](C(=O)N2CCOCC2)N(C)C(=O)[C@H](C2CCCC2)N(C)C(=O)C2(CCCC2)NC(=O)[C@@H]2C[C@@H](OC3CCCCO3)CN2C(=O)[C@H](CCc2ccc(C(F)(F)F)c(Cl)c2)NC(=O)CN(C)C(=O)[C@H](Cc2ccc(C)cc2)N(CC)C(=O)CN(C)C(=O)CN(C)C1=O (some centres unmarked) [PP0068] ([NMeL]I[Sar][Sar][NEtPhe(4-Me)][Sar][hPhe(3-Cl-4-CF3)][Hyp](X51)[Ac5c][NMeGly(cPent)][NMeD]-Morpholide; lactam N-11) | C (A compound having a KD ratio of 0.1 or more and less than 3 is denoted as C) | C (A compound having a KD ratio of 0.1 or more and less than 3 is denoted as C) |  |  |
